Reference: PubChem BioAssay AID1963853 (Molecular Pharmacology Branch, DTP, NCI, 2024)

System: 266295-075-R-J1-PDC spheroid viability
Experiment: Anticancer human tumor 266295-075-R-J1-PDC patient-derived head and neck squamous carcinoma cell line growth inhibition [POLQ]
Conditions: spheroids with HUVEC and MSC; for IC50: curve of first compound; for viability, T/C: stronger effect = lower value; active = viability on the fitted dose curve at most 10% of control; inactive = the rest
Outline: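 Three-cell-type spheroids modelling solid tumor plus stroma served as the readout system; POL inhibitors were tested individually and in combination, concentration ranges set by clinical Cmax where known.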

[1] = second compound 0.0316 µM, first compound 0.0316 µM
[2] = second compound 0.0316 µM, first compound 0.1 µM
[3] = second compound 0.0316 µM, first compound 0.316 µM
[4] = second compound 0.0316 µM, first compound 1 µM
[5] = second compound 0.1 µM, first compound 0.0316 µM
[6] = second compound 0.1 µM, first compound 0.1 µM
[7] = second compound 0.1 µM, first compound 0.316 µM
[8] = second compound 0.1 µM, first compound 1 µM
[9] = second compound 0.316 µM, first compound 0.0316 µM
[10] = second compound 0.316 µM, first compound 0.1 µM
[11] = second compound 0.316 µM, first compound 0.316 µM
[12] = second compound 0.316 µM, first compound 1 µM
[13] = second compound 1 µM, first compound 0.0316 µM
[14] = second compound 1 µM, first compound 0.1 µM
[15] = second compound 1 µM, first compound 0.316 µM
[16] = second compound 1 µM, first compound 1 µM
[17] = second compound 3.16 µM, first compound 0.0316 µM
[18] = second compound 3.16 µM, first compound 0.1 µM
[19] = second compound 3.16 µM, first compound 0.316 µM
[20] = second compound 3.16 µM, first compound 1 µM
[21] = second compound 10 µM, first compound 0.0316 µM
[22] = second compound 10 µM, first compound 0.1 µM
[23] = second compound 10 µM, first compound 0.316 µM
[24] = second compound 10 µM, first compound 1 µM
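Also: spheroids exposed to compounds for seven days before readout.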

C=CCn1c(=O)c2cnc(Nc3ccc(N4CCN(C)CC4)cc3)nc2n1-c1cccc(C(C)(C)O)n1 + Nc1ccc(C#CCN(C(=O)Cc2ncc(C(F)(F)F)cc2C(F)(F)F)c2ccc(F)cc2)nn1
> 1 µM: IC50 (second compound 0.0316 µM) | IC50 (second compound 0.1 µM) | IC50 (second compound 0.316 µM) | IC50 (second compound 1 µM) | IC50 (second compound 3.16 µM) | IC50 (second compound 10 µM)
inactive: viability, T/C (second compound 0.0316 µM, first compound 0.00316 µM) 102% | viability, T/C (second compound 0.0316 µM, first compound 0.01 µM) 90.4% | viability, T/C [1] 101% | viability, T/C [2] 89.2% | viability, T/C [3] 86.2% | viability, T/C [4] 63.8% | viability, T/C (second compound 0.1 µM, first compound 0.00316 µM) 114% | viability, T/C (second compound 0.1 µM, first compound 0.01 µM) 95.8% | viability, T/C [5] 88.1% | viability, T/C [6] 125% | viability, T/C [7] 84.1% | viability, T/C [8] 68.8% | viability, T/C (second compound 0.316 µM, first compound 0.00316 µM) 98.7% | viability, T/C (second compound 0.316 µM, first compound 0.01 µM) 99.1% | viability, T/C [9] 84.1% | viability, T/C [10] 85.2% | viability, T/C [11] 69.3% | viability, T/C [12] 65.3% | viability, T/C (second compound 1 µM, first compound 0.00316 µM) 93% | viability, T/C (second compound 1 µM, first compound 0.01 µM) 96.2% | viability, T/C [13] 87.7% | viability, T/C [14] 101% | viability, T/C [15] 81.3% | viability, T/C [16] 54.3% | viability, T/C (second compound 3.16 µM, first compound 0.00316 µM) 102% | viability, T/C (second compound 3.16 µM, first compound 0.01 µM) 106% | viability, T/C [17] 85.2% | viability, T/C [18] 77.3% | viability, T/C [19] 72.4% | viability, T/C [20] 63.5% | viability, T/C (second compound 10 µM, first compound 0.00316 µM) 115% | viability, T/C (second compound 10 µM, first compound 0.01 µM) 90.6% | viability, T/C [21] 91.5% | viability, T/C [22] 109% | viability, T/C [23] 81.2% | viability, T/C [24] 57.3%

COc1ccc([C@@H](O)c2cc(-c3ncnc4cc(N5CCOCC5)ccc34)c(F)cc2Cl)nn1 + COC1C(OC(N)=O)C(O)C(Oc2ccc3c(O)c(NC(=O)c4ccc(O)c(CC=C(C)C)c4)c(=O)oc3c2C)OC1(C)C
2.48 µM: IC50 (second compound 3.16 µM)
inactive: viability, T/C [1] 97.3% | viability, T/C [2] 84.5% | viability, T/C [3] 76.6% | viability, T/C [4] 62.7% | viability, T/C (second compound 0.0316 µM, first compound 3.16 µM) 49.9% | viability, T/C (second compound 0.0316 µM, first compound 10 µM) 40.7% | viability, T/C [5] 107% | viability, T/C [6] 105% | viability, T/C [7] 73.1% | viability, T/C [8] 74.5% | viability, T/C (second compound 0.1 µM, first compound 3.16 µM) 47.5% | viability, T/C (second compound 0.1 µM, first compound 10 µM) 43.7% | viability, T/C [9] 104% | viability, T/C [10] 85.9% | viability, T/C [11] 75.2% | viability, T/C [12] 64.7% | viability, T/C (second compound 0.316 µM, first compound 3.16 µM) 51.8% | viability, T/C (second compound 0.316 µM, first compound 10 µM) 43.4% | viability, T/C [13] 91.1% | viability, T/C [14] 96% | viability, T/C [15] 68.2% | viability, T/C [16] 73.6% | viability, T/C (second compound 1 µM, first compound 3.16 µM) 48.2% | viability, T/C (second compound 1 µM, first compound 10 µM) 39.8% | viability, T/C [17] 95.9% | viability, T/C [18] 84.6% | viability, T/C [19] 83.2% | viability, T/C [20] 62.2% | viability, T/C (second compound 3.16 µM, first compound 3.16 µM) 46% | viability, T/C (second compound 3.16 µM, first compound 10 µM) 40.2% | viability, T/C [21] 112% | viability, T/C [22] 75% | viability, T/C [23] 75.2% | viability, T/C [24] 63% | viability, T/C (second compound 10 µM, first compound 3.16 µM) 50.9% | viability, T/C (second compound 10 µM, first compound 10 µM) 37.3%
4.06 µM: IC50 (second compound 0.1 µM)
3.45 µM: IC50 (second compound 0.0316 µM)
2.74 µM: IC50 (second compound 10 µM)
3.67 µM: IC50 (second compound 1 µM)
4.31 µM: IC50 (second compound 0.316 µM)
